According to the NIST ThermoML archive (doi:10.1016/j.jct.2014.11.014):
± gives the expanded uncertainty stated by the source.

Experiment: osmotic coefficient (dimensionless); mn = molality of the nth substance listed, in mol/kg
Details: 298.15 K, 100 kPa, Liquid, isopiestic method

Row | osmotic coefficient (m1 = 1.014) | osmotic coefficient (m1 = 2.276) | osmotic coefficient (m1 = 2.931) | osmotic coefficient (m1 = 3.121) | osmotic coefficient (m1 = 3.201) | osmotic coefficient (m1 = 3.445) | osmotic coefficient (m1 = 3.639) | osmotic coefficient (m1 = 0.6482) | osmotic coefficient (m1 = 1.344) | osmotic coefficient (m1 = 1.706) | osmotic coefficient (m1 = 1.869) | osmotic coefficient (m1 = 1.921) | osmotic coefficient (m1 = 2.034) | osmotic coefficient (m1 = 2.247) | SMILES
1 | 0.986 ± 0.01 | 0.876 ± 0.011 | 0.855 ± 0.011 | 0.875 ± 0.011 | 0.872 ± 0.011 | 0.861 ± 0.011 | 0.889 ± 0.011 |  |  |  |  |  |  |  | N[C@@H](CO)C(=O)O [L-serine] + O
2 |  |  |  |  |  |  |  | 0.771 ± 0.013 | 0.742 ± 0.014 | 0.734 ± 0.014 | 0.731 ± 0.014 | 0.726 ± 0.014 | 0.729 ± 0.014 | 0.719 ± 0.014 | CCCCn1cc[n+](C)c1.[Br-] [1-butyl-3-methylimidazolium bromide] + O
